This is an account of results in article PMC7662639, “Synthesis and Evaluation of PEG-PR for Water Flux Correction in an In Situ Rat Perfusion Model” (Molecules, 2020).

Like-named read-outs stand apart in the source and are kept apart here.

Data set [1] is described as follows: Stability of markers and model drugs in Krebs–Ringer buffer (shaker bath, 37 °C, 120 min). The class given is physicochemical. As to conditions: for Ending (120 min) Conc. / Initial Conc.: 37 °C shaker bath, mean ± SD, n = 3; for Initial Conc.: start of experiment; for Percentage of concentration change: (Initial Conc. - Ending Conc.) / Initial Conc., 37 °C; for Ending (120 min) Conc. / Percentage of concentration change: 120 min. As to the method:
At the beginning and end (120 min) of the experiment, perfusion solution samples (0.4 mL) were acquired and centrifuged at 12,000 rpm for 10 min to determine the concentration changes of all compounds by HPLC analysis.
Table S1. Concentration changes of all compounds before and after the shaker bath
experiment. Data are shown as mean ± SD, n = 3.
Initial Ending Percentage of
Compound (120 min) concentration
As/Ai Conc. (μM) As/Ai Conc. (μM) change
As: HPLC peak area of compound .
Ai: HPLC peak area of internal standard .
Percentage of concentration change: (Initial Conc. -Ending Conc.) / Initial Conc.
Figure S7. Calibration line of PR (MW = 354) in Krebs–Ringer buffer.
(1 picture or pasted object on this page, not shown here)

Details of data set [2]: method as in ref 22 (Sutton et al. 2001). As to conditions: SPIP; ref 22 (Sutton et al. 2001); cited from earlier work.
The conditions of data set [3]: after 8 h, rat perfusion experiments; cited from earlier work.
Data set [4] in a line: Water flux (Jwater) corrected by marker in the recirculation perfusion model. The class given is in vivo, rat. As to conditions: 60–120 min, marker 56 μM, mean ± SD, n = 6. As to the method: The effective intestinal membrane permeability (Peff) of each model drug was surveyed using the recirculation intestinal perfusion method, as previously mentioned. A male rat weighing about 200 g was anesthetized and then fixed on a plate heated by a lamp at 37 °C. Through careful operation, two glass tubs were tightly secured on both ends of the intestinal segment using silk sutures. The Krebs–Ringer buffer was injected into the gut from the head end of the intestinal segment with a syringe until the outflow was clear. The intestine was then covered with cotton gauze wetted with 37 °C Krebs–Ringer buffer to maintain intestinal integrity and activity. The peristaltic pump and donor chamber (syringe) were connected with two catheters ligated onto the two abovementioned glass tubs. […] Finally, the length of the perfused intestinal segment was precisely measured at the end of the experiment.
As previously mentioned, the water flux through the membrane due to water absorption and secretion was of such significance that it could have influence on the accuracy of the experimental results. […] In this work, the volumes of the perfused solutions (Vt) were calculated from the experimental concentrations of the markers (C’t) as (4) V0=C^′V^′/C0′ (5) Vt=(V0−0.4)Ct−1′+0.4C^′/Ct′ (t=1,2,3…).
Jwater corrected by the marker was calculated using the following equation:(9) Jwater=d(V0−Vt)/dt (t=1,2,3…).

Data set [5] in a line: Everted gut sac (EGS) permeability. The class given is in vitro ADME, rat. The method, then: Briefly, the male Wistar rats were fasted for 1 day with access to only double-distilled water and then anesthetized with ether. Then, the duodenum, jejunum, ileum, and colon (10–15 cm) were cut out and preserved in cold Krebs–Ringer buffer. After the intestinal residue was removed, the intestinal segments were everted by a glass rod and ligated onto the appropriate glass tube. […] Then, 0.4 mL of receiver fluid was collected from the everted intestinal segments, and an equal blank Krebs–Ringer buffer was replenished every 15 min during the experiment.
An internal standard (cresol red 100 μg/mL) was added to every 300-μL intestinal fluid sample. The mixture was vortexed for 30 s and dried under nitrogen blowing at 40 °C. The residue was redissolved in 150-μL methanol and vortexed for 30 s. The supernatant was then subjected to detection by HPLC after centrifuging at 10,000 rpm for 10 min.

Details of data set [6]: method as in ref 21 (Tugcu-Demiroz et al. 2014). As to conditions: Doluisio technique; ref 21 (Tugcu-Demiroz et al. 2014); cited from earlier work.
Data set [7] is described as follows: Recirculation intestinal perfusion method, Peff of model drugs with water flux corrected by marker. The class given is in vivo, rat. As to the method: A male rat weighing about 200 g was anesthetized and then fixed on a plate heated by a lamp at 37 °C. Through careful operation, two glass tubs were tightly secured on both ends of the intestinal segment using silk sutures. The Krebs–Ringer buffer was injected into the gut from the head end of the intestinal segment with a syringe until the outflow was clear. The intestine was then covered with cotton gauze wetted with 37 °C Krebs–Ringer buffer to maintain intestinal integrity and activity. The peristaltic pump and donor chamber (syringe) were connected with two catheters ligated onto the two abovementioned glass tubs. The intestinal segments were placed carefully back into the rat abdomen to avoid interference with blood circulation. […] After stabilizing the whole system for 10 min with the perfusion solution (peristaltic pump, flow: 5 mL/min), the initial sample (0.4 mL, C’0) was collected from the donor chamber, and the equal perfusion solution with the model drug (100 μM, C0) was added into the donor chamber. Samples (0.4 mL, C’t and Ce) were then collected every 10 min for 60 min. Finally, the length of the perfused intestinal segment was precisely measured at the end of the experiment.
Internal standard solution (cresol red, 600 μg/mL) was added into the 300-μL sample solution and vortexed for 30 s. Then, 600 μL of […] was added, and the samples were vortexed for 2 min. After homogeneous mixing, the mixture was centrifuged at 10,000 rpm for 10 min. Finally, the 20-μL treated supernatant was subjected to detection by HPLC.
Thus, it was necessary to correct the volume of the perfusion solution during the experiment. In this work, the volumes of the perfused solutions (Vt) were calculated from the experimental concentrations of the markers (C’t) as (4) V0=C^′V^′/C0′ (5) Vt=(V0−0.4)Ct−1′+0.4C^′/Ct′ (t=1,2,3…).
The corrected drug concentration (Ct) was calculated as (6) Ct=CeVt/V0 where Ct represents the concentration of the compound corrected by the marker at time t, and Ce represents the experimental drug concentration value.
The apparent absorption rate coefficients (ka) were obtained by the equation of luminal corrected concentration versus time:(7) Ct=C0×e^−ka·t.
The Peff value was obtained from ka using the following equation, where R is the effective radius of the intestinal segment:(8) Peff=Ka·R/2.

Details of data set [8]: method as in ref 39 (Ruiz-Picazo et al. 2017). As to conditions: Doluisio method, ref 39 (Ruiz-Picazo et al. 2017), cited from earlier work.
Where [9] appears, read: rat complete small intestine, water flux corrected by PEG4k-PR, mean ± SD, n = 3.
Where [10] appears, read: rat complete small intestine, water flux corrected by PEG5k-PR, mean ± SD, n = 3.
Setting [11] is: rat complete small intestine, water flux corrected by PR, mean ± SD, n = 3.

As to Phenol red [PR], in data set [1], the “Ending (120 min) Conc.” value amounted to 56.11 ± 1.57 µM. In addition, the “Initial Conc.” value in data set [1] is 56.90 ± 1.10 µM. Further, the “Percentage of concentration change” value in data set [1] was 1.38%. The “average corrected water flux” value in data set [2] is 26.8 ± 49.2 µL/cm/h. Further, in data set [3], the urinary recovery entry is on record as “about 4%”. Besides, in data set [4], the “Jwater (water flux) corrected by the marker” value was 88.7 ± 37.9 µL/cm/h. Moreover, the cumulative permeable percentage in data set [5] (56 μM, all intestinal segments) was 3–5%. In addition, the “cumulative permeable percentage at 112 μM relative to 28 μM” value in data set [5] (colon) is “twice as large”. Moreover, the Papp in data set [5] (colon, 28 μM) was 4.07 ± 1.33 ×10^−6 cm/s; in data set [5] (colon, 56 μM), 5.83 ± 1.9 ×10^−6 cm/s; in data set [5] (colon, 112 μM) it was 8.57 ± 3.54 ×10^−6 cm/s; in data set [5] (ileum, 28 μM), 6.17 ± 2.17 ×10^−6 cm/s; in data set [5] (ileum, 56 μM) it was 6.77 ± 2.32 ×10^−6 cm/s; in data set [5] (ileum, 112 μM), 8.90 ± 1.65 ×10^−6 cm/s. The Papp in data set [5] (jejunum, 28 μM) is on record as 7.68 ± 2.04 ×10^−6 cm/s; in data set [5] (jejunum, 56 μM), 8.36 ± 3.11 ×10^−6 cm/s; in data set [5] (jejunum, 112 μM) it was 10.42 ± 2.58 ×10^−6 cm/s. For the same molecule, the “W (cumulative permeable percentage)” value in data set [5] (colon, 28 μM) came out at 2.50 ± 0.82%; in data set [5] (colon, 56 μM) it was 3.36 ± 0.79%; in data set [5] (colon, 112 μM), 5.18 ± 1.22%; in data set [5] (ileum, 28 μM), 3.55 ± 1.50%; in data set [5] (ileum, 56 μM) it was 4.23 ± 1.38%; in data set [5] (ileum, 112 μM) it was 5.27 ± 2.31%. Further, the “W (cumulative permeable percentage)” value in data set [5] (jejunum, 28 μM) was found to be 4.44 ± 1.98%; in data set [5] (jejunum, 56 μM) it was 4.92 ± 1.12%; in data set [5] (jejunum, 112 μM), 5.77 ± 1.70%. For the same molecule, the water flux in data set [6] was 55 µL/cm/h.
Consider `COCCc1ccc(OCC(O)CNC(C)C)cc1` (stereo not drawn) [Metoprolol], for which the “Ending (120 min) Conc.” value in data set [1] amounted to 102.12 ± 0.58 µM. The “Initial Conc.” value in data set [1] came out at 103.62 ± 2.29 µM. Also, the “Percentage of concentration change” value in data set [1] amounted to 1.46%. For the same molecule, the Peff in data set [7] (colon, corrected by PEG5k-PR) was 0.000102 cm/s; in data set [7] (ileum, corrected by PEG5k-PR) it was 9.4e-05 cm/s; in data set [7] (jejunum, corrected by PEG5k-PR), 0.000107 cm/s; in data set [7] (setting [9]), 5.06 ± 0.57 ×10^−5 cm/s; in data set [7] (setting [10]) it was 5.29 ± 1.49 ×10^−5 cm/s; in data set [7] (setting [11]) it was 5.11 ± 0.85 ×10^−5 cm/s.
With `CC(C)NCC(O)COc1ccc(CC(N)=O)cc1` (stereo not drawn) [Atenolol], the “Ending (120 min) Conc.” value in data set [1] is 105.93 ± 0.61 µM. The “Initial Conc.” value in data set [1] turned out to be 105.19 ± 0.96 µM. Also, the “Percentage of concentration change” value in data set [1] was found to be 0.75%. Further, the Peff in data set [8] (colon) is 21.1 ×10⁻⁶ cm/s; in data set [8] (ileum), 16.3 ×10⁻⁶ cm/s; in data set [8] (jejunum), 22.7 ×10⁻⁶ cm/s; in data set [7] (colon, corrected by PEG5k-PR), 3.3e-05 cm/s; in data set [7] (ileum, corrected by PEG5k-PR) it was 2.3e-05 cm/s; in data set [7] (jejunum, corrected by PEG5k-PR), 2.6e-05 cm/s. For the same molecule, the Peff is 1.06 ± 0.24 ×10^−5 cm/s in data set [7] (setting [9]), 1.38 ± 0.34 ×10^−5 cm/s in data set [7] (setting [10]) and 0.49 ± 0.10 ×10^−5 cm/s in data set [7] (setting [11]).
